Results: patent publication US7148250B2, “Indoles as NAALADase inhibitors” (Guilford Pharmaceuticals Inc., priority 2001, dated 2006)
Where a SMILES comes first, the peptide text is derived from it.

Columns and labels:
[1] = test system: rats subjected to middle cerebral artery occlusion; experiment: Effect of NAALADase inhibition on TGF-β in in vivo ischemia model (MCAO); set-up: species or system rat
Source text: The effect of TGF-β neutralizing antibodies on the neuroprotective effect of Compound C was also studied in rats following MCAO.

ischemic cell cultures = experiment: Effect of NAALADase inhibition on TGF-β in in vitro ischemia model; assay type: cell-based
Procedure: A NAALADase inhibitor, Compound C, was added to ischemia cell cultures to determine its effect on TGF-β levels during stroke.
TGF-β neutralizing antibodies were then added to the ischemic cell cultures.

[2] = test system: chronic constrictive injury-induced rats; experiment: Neuropathic pain in chronic constriction injury (CCI) model; assay type: in vivo, rat; conditions: 50 mg/kg i.p. daily from 10 days post surgery, significant from 11 days of treatment
Procedure: Sciatic nerve ligation, consisting of 4 ligatures tied loosely around the sciatic nerve at 1 mm intervals proximal to the nerve trifurcation, was performed on rats. […] The rats were habituated to a Hargreaves apparatus. An infrared heat source was directed onto the dorsal surface of each rat's hindpaws and the time taken for the rat to withdraw its paws was noted. The difference in scores between the latency of the response for the paw on the operated side versus the paw on the unoperated control side was determined.
The rats received either Compound C (50 mg/kg i.p. daily) or a vehicle starting 10 days post surgery. […] Normal (unoperated) rats had approximately equal latencies for both paws. This effect was significant starting at 11 days of drug treatment and persisted through to the end of the study (for 21 days of daily dosing).

STZ-diabetic rats [3] = experiment: Neuropathic pain in STZ model (thermal withdrawal latency); assay type: in vivo, rat; conditions: 10 mg/kg i.p. daily, treatment from 45 days post STZ
Procedure: Male Sprague-Dawley rats (200–225 g) were rendered diabetic by intravenous administration of streptozotocin (“STZ”, 70 mg/kg in phosphate buffered saline). Diabetic animals were divided into five groups: one group receiving Compound A (10 mg/kg or 1 mg/kg), Compound D (10 mg/kg or 1 mg/kg) or vehicle. Another group of animals (non-STZ treated) served as non-diabetic controls. Drug/vehicle treatment was started in diabetic animals 45 days post-STZ administration. STZ-induced diabetic rats were tested for sensitivity to a heat source as soon as blood glucose levels rose to 320 mg/dl or above (30 days post STZ). The rats were then acclimated to a Hargreaves apparatus and thermal nociception was monitored using an infrared heat source directed into the dorsal surface of the hindpaw, and the time taken for the animal to remove its paw noted to the nearest 0.1 seconds (see Hargreaves et al., supra, for detailed experimental method). The intensity of the beam source was adjusted such that the mean latency for control animals (non-STZ treated) was approximately 10 seconds. Each animal was tested 8 times and the mean difference score (between mean non-diabetic control latency and mean diabetic latency) are graphically presented in FIGS. 7A and 7B.

STZ-diabetic rats [4] = experiment: Diabetic neuropathy in STZ model (nerve conduction velocity); assay type: in vivo, rat; conditions: 10 mg/kg daily, 4, 8 and 12 weeks
Procedure: Motor and sensory nerve conduction velocity was also measured in STZ-diabetic animals after 4, 8 and 12 weeks of treatment (see De Koning et al., supra, for a description of the experimental method). Briefly, stimulating needle electrodes were inserted close to the sciatic and tibial nerves with recording electrodes being placed subcutaneously over the distal foot muscles, in anesthetized rats.

[5] = test system: Brown Norway rats with unilateral optic nerve transection; experiment: Optic nerve transection, optic nerve fiber counting; assay type: in vivo, Rattus norvegicus; conditions: for FIBER NUMBER ± SEM / PERCENT DIFFERENCE ± SEM in fiber number between transected and normal eye: 10 mg/kg i.p. daily
Procedure: (§1) All experiments complied with the Association for Research in Vision and Ophthalmology Statement for the Use of Animals in Ophthalmic and Vision Research. 82 male Brown Norway rats (Rattus norvegicus), each weighing approximately 250 gm, were treated using procedures approved by the Animal Care Committee of the Johns Hopkins University School of Medicine. The rats were housed with a 12 hour light/12 hour dark cycle and fed ad libitum.
OPTIC NERVE TRANSECTION: The optic nerve was transected unilaterally in 26 rats under intraperitoneal pentobarbital anesthesia. The conjunctiva was opened with scissors and the optic nerve exposed by traction on extraocular muscles. The transection was performed with microscissors 5 mm posterior to the globe, with specific attention to avoidance of injury to major ocular blood vessels. Immediately after transection, the retina was examined ophthalmoscopically to assure that the retinal arterial blood supply was not disrupted. The conjunctiva was closed with absorbable suture and the eye dressed with antibiotic ointment. Beginning on the day of transection, the rats were treated daily with intraperitoneal injections of either a vehicle (9 rats with 50 mM HEPES-buffered saline) or a NAALADase inhibitor (8 rats with 10 mg/kg of Compound A and 9 rats with 10 mg/kg of Compound B). 5 saline treated rats, 3 Compound A treated rats and 4 Compound B treated rats were sacrificed at 2 weeks, and the remaining rats at 4 weeks, after transection.
(§2) OPTIC NERVE COUNTING: The rats were sacrificed by exsanguination under deep pentobarbital anesthesia. They were perfused through the heart with 2% paraformaldehyde/2% glutaraldehyde in 0.1 M phosphate buffer, pH 7.2, and the eyes with attached optic nerves were removed. A cross-section of the optic nerve from both experimental (glaucoma or transection) and control eyes was removed 1.5 mm posterior to the globe, 1 mm in thickness, and post-fixed in 2% osmium tetroxide in buffer. These were processed into epoxy resin, sectioned at 1 micron and stained with toluidine blue.
(§3) The area of the optic nerve cross-section was measured by outlining its outer border at 10× magnification on an image analysis system (Universal Imaging Corp., Westchester, Pa.) with Synsys digital camera and Metamorph software. Three area measurements were taken and the mean value was determined. To measure the density and fiber diameter distributions, images were captured with a 100× phase contrast objective from 10 different areas of each nerve. These were edited to eliminate non-neural objects and the size of each axon internal to the myelin sheath (its minimum diameter) and the density of axons/square mm were calculated for each image and nerve. The mean density was multiplied by total nerve area to yield fiber number for each nerve. The total fiber number in glaucoma or transection nerves was compared to the normal, fellow eye of each rat to yield a percent loss value. The number of axons counted among the 10 images was an approximately 20% sample of the 80–90,000 axons in normal rat nerves. The person measuring axon number was masked to the protocol conducted on the nerves.

BB/W diabetic rats = experiment: Progression of neuropathic pain and nerve conduction deficits in BB/W model; assay type: in vivo, rat
Source text: Male BB/W rats (BRI, Mass) spontaneously develop a cell mediated autoimmune destruction of pancreatic B cells, resulting in onset of insulin-dependent (Type I) diabetes (Guberski 1994). […] This renders them valuable for experimental trials of new compounds for future treatments of this major disorder. In the present study, Compound D and Compound A were examined for their ability to alter the progression of diabetic neuropathy. The rats received daily injection of Compound D or Compound A (10 mg/kg i.p.) or vehicle, starting at the onset of diabetes (hyperglycemia) and up to 6 months thereafter. Another group of non-diabetic rats also receiving vehicle were tested. All animals were continuously monitored for body weight, urine volume, blood sugar and glycated haemoglobin. In the first month of the study, all animals were tested for thermal nociception in a Hargreaves apparatus, weekly. After the first month this was done biweekly and then monthly. The testing consists of directing an infrared heat source onto the dorsal surface of the rat hindpaw and noting the time taken for the animal to remove its paw (see Hargreaves et al., supra, for a description of the experimental method). Each animal was tested 8 times and the mean withdrawal latency noted.
Nerve conduction velocity was also measured every two weeks through the first eight weeks of treatment and every month thereafter through to the six months of treatment (see De Koning et al., Peptides, Vol. 8, No. 3, pp. 415–22 (1987) for a description of the experimental method). […] This was apparent starting at 8 weeks of treatment and persisted to a similar degree through to the six month termination point of the study.

transgenic G1H mice = experiment: Effect on onset of ALS in transgenic FALS mice; assay type: in vivo, mouse
Procedure: The effect of NAALADase inhibitors on the onset of ALS was tested using the transgenic mice model of familial Amyotrophic Lateral Sclerosis (FALS), which is detailed in Gurney, M., Annals of Neurology (1996) 39:147–157, and otherwise well known in the art. One month old transgenic G1H mice were treated with daily intraperitoneal injections of a vehicle (50 mM HEPES-buffered saline) or a NAALADase inhibitor (50 mg/kg Compound A). Clinical symptoms of the mice were monitored daily. The onset of clinical disease was scored by examining each mouse for its shaking of limbs when suspended in the air by its tail, cross spread of spinal reflexes, hindlimb paralysis, body weight and wheel running activity.

[6] = test system: Brown Norway rats with unilateral elevation of intraocular pressure; experiment: Experimental rat glaucoma (IOP elevation), optic nerve fiber counting; assay type: in vivo; conditions: 8 week group, 10 mg/kg i.p. daily
Procedure: as §1
EXPERIMENTAL GLAUCOMA: Unilateral elevation of intraocular pressure (“IOP”) was produced in 56 rats by microinjection of hypertonic saline into episcleral veins, following procedures described in Morrison, J. et al., IOVS (March 1998) 39:526–531. Beginning on the day of IOP elevation, the rats were treated daily with intraperitoneal injections of either a vehicle (23 rats with 50 mM HEPES-buffered saline) or a NAALADase inhibitor (11 rats with 10 mg/kg of Compound A and 22 rats with 10 mg/kg of Compound B). 11 saline treated rats, 11 Compound A treated rats and 11 Compound B treated rats were sacrificed at 8 weeks, and the remaining rats at 12 weeks, after initial IOP elevation.
as §2, §3

NAALADase = conditions: read-out: Km of NAALADase for NAAG; cited from earlier work
[7] = 2 weeks survival after transection
[8] = 4 weeks survival after transection

Q: Which “neuroprotective effect in vivo with TGF-β neutralizing antibodies” value ([1]; FIG. 5) does the source give for O=C(O)CCC(CP(=O)(O)O)C(=O)O (centres unmarked) [Compound C, 2-(phosphonomethyl)-pentanedioic acid] here?
A: The value was “significantly attenuated”.

Q: What about the “TGF-β1 levels during occlusion and reperfusion” value ([1]; microdialysis, FIG. 6) of the same compound?
A: Its value is “significant rise”.

Q: What about the “TGF-β1 concentrations in ischemic cell cultures” value (ischemic cell cultures; FIG. 1) of the same compound?
A: The value was “increased concentrations”.

Q: What about the “TGF-β2 concentrations in ischemic cell cultures” value (ischemic cell cultures; FIG. 2) of the same compound?
A: Its value is “increased concentrations”.

Q: And the “neuroprotective effect after addition of TGF-β neutralizing antibodies” value (ischemic cell cultures; in vitro ischemia model, FIG. 3)?
A: The value was “blocked”.

Q: And the “neuroprotective effect after addition of FGF antibody” value (ischemic cell cultures; in vitro ischemia model, FIG. 4)?
A: Its value is “did not block”.

Q: And the “difference scores between the two paws (withdrawal latency)” value [2]?
A: Its value is “dramatically normalized”.

Q: With O=C(O)CCC(CP(=O)(O)Cc1c(F)c(F)c(F)c(F)c1F)C(=O)O (centres unmarked) [Compound A] as the compound, how does the “hyperalgesic response (withdrawal latency difference score)” value (STZ-diabetic rats [3]) read?
A: The value was “completely reversed”.

Q: What about the “motor and sensory nerve conduction velocities” value (STZ-diabetic rats [4]) of the same compound?
A: The value was “tended to improve (increase)”.

Q: And the “remaining axons relative to saline-treated rats” value ([5]; 2 weeks after transection)?
A: Its value is 3 times.

Q: And the “FIBER NUMBER ± SEM” value [5, 7]?
A: The value was 26,426 ± 13,293.

Q: And the “PERCENT DIFFERENCE ± SEM in fiber number between transected and normal eye” value [5, 7]?
A: The value was 65.3 ± 17.8%.

Q: What about the “FIBER NUMBER ± SEM” value [5, 8] of the same compound?
A: The value was 13,599 ± 3,519.

Q: What about the “PERCENT DIFFERENCE ± SEM in fiber number between transected and normal eye” value [5, 8] of the same compound?
A: The value was 82.4 ± 4.0%.

Q: And the “nerve conduction velocity deficits versus diabetic vehicle controls” value (BB/W diabetic rats; 10 mg/kg daily, from 8 weeks to six months)?
A: Its value is “significantly less severe nerve conduction deficits”.

Q: And the “withdrawal latency versus diabetic vehicle-treated rats” value (BB/W diabetic rats; 10 mg/kg i.p. daily, from 4 weeks through six months of treatment)?
A: The value was “longer withdrawal latencies”.

Q: And the “DIFFERENCE in disease onset, treated versus vehicle” value (transgenic G1H mice; Study 1)?
A: The value was 32.

Q: And the “DISEASE ONSET FOR COMPOUND A TREATED MICE” value (transgenic G1H mice; Study 1, 50 mg/kg i.p. daily)?
A: Its value is 221 days.

Q: And the “DIFFERENCE in disease onset, treated versus vehicle” value (transgenic G1H mice; Study 2)?
A: Its value is 25.

Q: What about the “DISEASE ONSET FOR COMPOUND A TREATED MICE” value (transgenic G1H mice; Study 2, 50 mg/kg i.p. daily) of the same compound?
A: The value was 166 days.

Q: What about the “FIBER NUMBER ± SEM” value [6] of the same compound?
A: Its value is 79156 ± 2436.

Q: What about the “PERCENT DIFFERENCE ± SEM in fiber number between glaucoma and normal eye” value ([6]; positive = fewer fibers in glaucoma eye) of the same compound?
A: The value was −1.82 ± 2.92%.

Q: With CC(=O)N[C@@H](CC(=O)O)C(=O)N[C@@H](CCC(=O)O)C(=O)O [NAAG, N-acetyl-aspartyl-glutamate] (Ac-Asp-Glu-OH) as the compound, how does the Km (NAALADase) read?
A: Its Km is 0.54 µM.
